Values of other authors as cited in patent US7041655B1, “Capillary membrane stabilization and reduction of tissue injury through use of IV biodegradable macromolecules with antioxidants and/or other chemicals” (priority 1996, dated 2006).

Tests used:
[1] = used for fluid replacement therapy
[2] = intravenous infusion
[3] = in 24 hours; molecules below 50,000 daltons rapidly eliminated by renal excretion

| Substance | toxic reactions observed [1] | duration of improved hemodynamic status of the subject [2] [h] | time over which the expansion of plasma volume decreases ([2]; expansion slightly in excess of the volume infused) [h] | part of a given total dose appearing in the urine [3] |
| --- | --- | --- | --- | --- |
| dextran | Few toxic reactions | – | – | – |
| hydroxyethyl starch | Few toxic reactions | ≥ 24 | 24 to 36 | approximately 40% |
